Experimental data from paper PMC10746543, “Design principles for cyclin K molecular glue degraders” (Nature Chemical Biology, 2023).
“And” between values parts separate entries of the source, which are not always exact repeats. Identical values can stand only once. Like-named read-outs stand apart in the source and are kept apart here.

Experiments:
CDK12–cyclin K and DDB1 = target: T1, CDK12–cyclin K and DDB1 (Homo sapiens, UniProt Q16531+Q9NYV4, K965R); experiment: TR-FRET ternary complex formation assay (compound titration); assay type: binding
T1 construct: His6–CDK12 (a.a. 713–1,052); full-length or beta-propeller B domain deletion (ΔBPB: a.a. 396–705 deleted) constructs of His6–DDB1ΔBPB, StrepII–Avi–DDB1, or His6–Spy–DDB1; made in house; host or cells: Trichoplusia ni High Five insect cells (baculovirus)
T1 sequence (Q9NYV4 713-1052 K965R): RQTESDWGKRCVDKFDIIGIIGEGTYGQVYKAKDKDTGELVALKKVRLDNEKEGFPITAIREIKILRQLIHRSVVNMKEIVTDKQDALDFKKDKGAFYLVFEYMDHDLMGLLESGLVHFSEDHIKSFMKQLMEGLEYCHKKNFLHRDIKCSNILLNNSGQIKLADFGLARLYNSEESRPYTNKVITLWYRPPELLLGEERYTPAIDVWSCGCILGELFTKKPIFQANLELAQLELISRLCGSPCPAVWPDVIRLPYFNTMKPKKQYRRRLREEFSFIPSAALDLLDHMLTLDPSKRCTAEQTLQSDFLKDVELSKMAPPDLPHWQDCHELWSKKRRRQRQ
T1 sequence (O75909 1-267 partner): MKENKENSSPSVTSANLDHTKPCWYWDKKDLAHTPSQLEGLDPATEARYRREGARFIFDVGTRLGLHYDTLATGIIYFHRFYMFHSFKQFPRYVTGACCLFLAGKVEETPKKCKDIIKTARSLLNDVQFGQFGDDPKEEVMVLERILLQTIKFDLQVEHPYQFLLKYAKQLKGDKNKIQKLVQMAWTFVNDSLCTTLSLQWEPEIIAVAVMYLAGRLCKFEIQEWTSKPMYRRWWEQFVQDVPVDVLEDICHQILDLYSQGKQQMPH
T1 sequence (Q16531 whole entry): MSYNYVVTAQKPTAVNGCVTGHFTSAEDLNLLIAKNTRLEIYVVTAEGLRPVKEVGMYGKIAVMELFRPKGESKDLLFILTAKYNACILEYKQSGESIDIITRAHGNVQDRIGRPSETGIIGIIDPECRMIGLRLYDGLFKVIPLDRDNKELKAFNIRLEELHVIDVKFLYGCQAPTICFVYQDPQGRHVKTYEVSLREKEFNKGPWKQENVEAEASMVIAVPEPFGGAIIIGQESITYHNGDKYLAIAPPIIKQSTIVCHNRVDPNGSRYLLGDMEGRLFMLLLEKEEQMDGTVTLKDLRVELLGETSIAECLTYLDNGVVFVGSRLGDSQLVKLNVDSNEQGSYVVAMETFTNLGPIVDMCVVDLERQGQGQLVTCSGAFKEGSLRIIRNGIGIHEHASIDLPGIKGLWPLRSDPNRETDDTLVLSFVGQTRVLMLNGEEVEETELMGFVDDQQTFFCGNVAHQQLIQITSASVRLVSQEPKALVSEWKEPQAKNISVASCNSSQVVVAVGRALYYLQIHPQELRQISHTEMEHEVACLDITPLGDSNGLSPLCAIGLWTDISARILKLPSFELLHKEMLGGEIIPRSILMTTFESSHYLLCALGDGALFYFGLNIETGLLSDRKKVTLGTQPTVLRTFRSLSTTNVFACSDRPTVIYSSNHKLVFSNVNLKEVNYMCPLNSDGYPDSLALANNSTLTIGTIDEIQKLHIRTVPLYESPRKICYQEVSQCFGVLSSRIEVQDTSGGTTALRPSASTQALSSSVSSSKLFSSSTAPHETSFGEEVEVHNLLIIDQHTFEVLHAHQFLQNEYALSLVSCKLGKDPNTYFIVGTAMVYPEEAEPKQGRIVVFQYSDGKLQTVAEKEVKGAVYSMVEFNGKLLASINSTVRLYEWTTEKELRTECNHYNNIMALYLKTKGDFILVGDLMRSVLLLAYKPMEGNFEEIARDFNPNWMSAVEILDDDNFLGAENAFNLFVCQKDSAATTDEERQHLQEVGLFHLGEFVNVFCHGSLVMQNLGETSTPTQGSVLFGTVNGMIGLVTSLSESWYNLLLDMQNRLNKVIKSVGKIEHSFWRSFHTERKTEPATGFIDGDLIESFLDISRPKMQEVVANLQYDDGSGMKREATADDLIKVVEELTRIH
Summary of the method: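 Background fluorescence is reduced by reading 70 μs after excitation, and complex formation is followed as the 520:490 nm fluorescence ratio.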

CDK12–cyclin K = CDK12–cyclin K (Homo sapiens, UniProt Q9NYV4); experiment: Lanthascreen kinase binding assay, CDK12; settings: for Lanthascreen raw signal, sheet CDK12: series r37, duplicates
Chain of CDK12–cyclin K (Q9NYV4 713-1052): as the sequence (Q9NYV4 713-1052 K965R) above, with R253K counted along it
Chain of CDK12–cyclin K (O75909 1-267 partner limits assumed): as the sequence (O75909 1-267 partner) above
Protocol: (§1) Lanthascreen experiments were performed using commercially available reagents (Thermo Fisher) and according to the manufacturer’s instructions.

HEK293T cells = experiment: Drug sensitivity assay (CellTiter-Glo viability) with or without MLN4924 pretreatment; assay type: cell-based, human; settings: Supplementary Table 2
Summary of the method: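 First, cells (HEK293T–Cas9, 0.15 × 10^6 ml^−1) are exposed to DMSO or 100 nM MLN4924. Next, drugs follow at 2 h. Finally, CellTiter-Glo is read at day 3 and normalised to DMSO.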

CDK2–cyclin A = target: T2, CDK2–cyclin A (Homo sapiens, UniProt P24941); experiment: Lanthascreen kinase binding assay, CDK2; settings: for Lanthascreen signal, sheet CDK2: raw replicates, experiment r36-r46
T2 construct: purchased Thermo Fisher
Protocol: as §1

[1] = tested on: cyclin K–eGFP degradation reporter; experiment: Cyclin K reporter stability analysis (dual-color cyclin K–eGFP reporter); assay type: cell-based, human; settings: Supplementary Table 2; HEK293T cycK-eGFP reporter, 5 h; read-out: Cellular assays DC50
Summary of the method: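 Values reflect cyclin K–eGFP levels after a 5 h exposure, expressed as the green-to-red fluorescence ratio and scaled to three vehicle-treated controls. Measurements came from HEK293T–Cas9 reporter cells by flow cytometry.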

CDK9–cyclin T = target: T3, CDK9–cyclin T (Homo sapiens, UniProt P50750); experiment: Lanthascreen kinase binding assay, CDK9; settings: for Lanthascreen TR-FRET signal (raw ratio), sheet CDK9: third titration set (r25), duplicates
T3 construct: purchased Thermo Fisher
T3 sequence (P50750 whole entry): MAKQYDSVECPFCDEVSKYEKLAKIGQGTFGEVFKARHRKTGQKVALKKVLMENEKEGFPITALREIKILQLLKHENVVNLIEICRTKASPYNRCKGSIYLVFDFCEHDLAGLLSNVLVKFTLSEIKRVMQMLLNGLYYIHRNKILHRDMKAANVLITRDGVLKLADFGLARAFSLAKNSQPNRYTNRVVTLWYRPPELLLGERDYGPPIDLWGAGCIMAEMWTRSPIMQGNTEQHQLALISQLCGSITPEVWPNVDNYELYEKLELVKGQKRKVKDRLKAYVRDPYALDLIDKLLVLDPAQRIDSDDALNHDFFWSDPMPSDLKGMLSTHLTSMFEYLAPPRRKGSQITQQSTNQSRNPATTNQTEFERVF
T3 sequence (O60563 whole entry partner): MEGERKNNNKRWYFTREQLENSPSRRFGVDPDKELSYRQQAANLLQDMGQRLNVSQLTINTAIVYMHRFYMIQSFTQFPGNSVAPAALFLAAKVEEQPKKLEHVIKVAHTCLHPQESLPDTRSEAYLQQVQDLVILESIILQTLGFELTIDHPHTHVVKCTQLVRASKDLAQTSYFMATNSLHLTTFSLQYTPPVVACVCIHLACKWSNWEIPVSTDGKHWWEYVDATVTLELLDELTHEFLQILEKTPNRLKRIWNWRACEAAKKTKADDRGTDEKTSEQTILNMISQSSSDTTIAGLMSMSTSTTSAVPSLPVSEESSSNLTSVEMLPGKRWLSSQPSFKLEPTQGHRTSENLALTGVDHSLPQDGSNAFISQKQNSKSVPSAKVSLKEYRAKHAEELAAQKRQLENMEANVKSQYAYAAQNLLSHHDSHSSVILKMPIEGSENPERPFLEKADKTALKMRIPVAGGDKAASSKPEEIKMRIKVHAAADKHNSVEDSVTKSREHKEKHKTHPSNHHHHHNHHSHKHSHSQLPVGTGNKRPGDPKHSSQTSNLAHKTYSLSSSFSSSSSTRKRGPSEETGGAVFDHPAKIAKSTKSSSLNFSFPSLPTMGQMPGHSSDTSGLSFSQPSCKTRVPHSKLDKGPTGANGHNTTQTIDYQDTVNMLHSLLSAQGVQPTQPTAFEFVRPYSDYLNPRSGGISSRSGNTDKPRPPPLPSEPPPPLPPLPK
Protocol: as §1

## CC[C@H](CO)Nc1nc(NCc2ccc(-c3ccccn3)cc2)c2ncn(-c3cnn(C)c3)c2n1 [DS20]
CDK12–cyclin K and DDB1; compound concentration 4.68 nM, raw replicate titration data
  TR-FRET signal at compound concentration 4.68 nM: 0.1341 and 0.1393
CDK12–cyclin K and DDB1; compound concentration 21.6 nM, raw replicate titration data
  TR-FRET signal at compound concentration 21.6 nM: 0.1505 and 0.1671
CDK12–cyclin K and DDB1; compound concentration 36 nM, raw replicate titration data
  TR-FRET signal at compound concentration 36 nM: 0.1763 and 0.1953
CDK12–cyclin K and DDB1; compound concentration 79.2001 nM, raw replicate titration data
  TR-FRET signal at compound concentration 79.2001 nM: 0.2244 and 0.2373
CDK12–cyclin K and DDB1; compound concentration 158.4 nM, raw replicate titration data
  TR-FRET signal at compound concentration 158.4 nM: 0.3075 and 0.3209
CDK12–cyclin K and DDB1; compound concentration 309.6 nM, raw replicate titration data
  TR-FRET signal at compound concentration 309.6 nM: 0.4615 and 0.4691
CDK12–cyclin K and DDB1; compound concentration 626.401 nM, raw replicate titration data
  TR-FRET signal at compound concentration 626.401 nM: 0.7336 and 0.7393
CDK12–cyclin K and DDB1; compound concentration 1252.8 nM, raw replicate titration data
  TR-FRET signal at compound concentration 1252.8 nM: 1.129 and 1.14
CDK12–cyclin K and DDB1; compound concentration 2448 nM, raw replicate titration data
  TR-FRET signal at compound concentration 2448 nM: 1.631 and 1.657
CDK12–cyclin K and DDB1; compound concentration 9936.01 nM, raw replicate titration data
  TR-FRET signal at compound concentration 9936.01 nM: 2.437 and 2.497
CDK12–cyclin K and DDB1; compound concentration 20016 nM, raw replicate titration data
  TR-FRET signal at compound concentration 20016 nM: 2.527 and 2.638
CDK12–cyclin K and DDB1; in vitro TR-FRET
  DDB1–CDK12 complex formation, result in words: poorer glues
CDK12–cyclin K and DDB1; sheet MOESM7, read-out: log TR-FRET EC50 (converted)
  EC50: 1.84 µM
CDK12–cyclin K; Lanthascreen, average, Extended Data Fig. 8, read-out: CDK12 IC50
  IC50: > 10000 nM
CDK12–cyclin K; Supplementary Table 2, read-out: Lanthascreen IC50 [nM] CDK12
  IC50: > 10000 nM
CDK12–cyclin K; compound 0.038147 nM
  Lanthascreen raw signal, sheet CDK12: 0.01392 and 0.01331
CDK12–cyclin K; compound 0.152588 nM
  Lanthascreen raw signal, sheet CDK12: 0.01475 and 0.01452
CDK12–cyclin K; compound 0.610352 nM
  Lanthascreen raw signal, sheet CDK12: 0.01495
CDK12–cyclin K; compound 9.76563 nM
  Lanthascreen raw signal, sheet CDK12: 0.01647 and 0.01469
CDK12–cyclin K; compound 39.0625 nM
  Lanthascreen raw signal, sheet CDK12: 0.0142 and 0.01474
CDK12–cyclin K; compound 156.25 nM
  Lanthascreen raw signal, sheet CDK12: 0.01388 and 0.01469
CDK12–cyclin K; compound 625 nM
  Lanthascreen raw signal, sheet CDK12: 0.01464 and 0.015
CDK12–cyclin K; compound 2500 nM
  Lanthascreen raw signal, sheet CDK12: 0.01337 and 0.01367
CDK12–cyclin K; compound 10000 nM
  Lanthascreen raw signal, sheet CDK12: 0.01057 and 0.01115
HEK293T cells; Homo sapiens, HEK-293T, HEK293T viability, 72 h, compound alone, read-out: Cellular assays EC50
  EC50: > 10 µM
HEK293T cells; MLN4924-mediated cytotoxicity rescue, 10 µM used where n.d.
  Toxicity rescue: 0%
CDK2–cyclin A; Compound 0.038147 nM
  Lanthascreen signal, sheet CDK2: 0.01372 and 0.01355
CDK2–cyclin A; Compound 0.152588 nM
  Lanthascreen signal, sheet CDK2: 0.01402 and 0.01425
CDK2–cyclin A; Compound 0.610352 nM
  Lanthascreen signal, sheet CDK2: 0.0137 and 0.01464
CDK2–cyclin A; Compound 9.76563 nM
  Lanthascreen signal, sheet CDK2: 0.01391 and 0.01419
CDK2–cyclin A; Compound 39.0625 nM
  Lanthascreen signal, sheet CDK2: 0.01392 and 0.01397
CDK2–cyclin A; Compound 156.25 nM
  Lanthascreen signal, sheet CDK2: 0.01435 and 0.01404
CDK2–cyclin A; Compound 625 nM
  Lanthascreen signal, sheet CDK2: 0.01359 and 0.01432
CDK2–cyclin A; Compound 2500 nM
  Lanthascreen signal, sheet CDK2: 0.01402 and 0.01364
CDK2–cyclin A; Compound 10000 nM
  Lanthascreen signal, sheet CDK2: 0.01203 and 0.01167
CDK2–cyclin A; Lanthascreen, average, Extended Data Fig. 8, read-out: CDK2 IC50
  IC50: > 10000 nM
CDK2–cyclin A; Supplementary Table 2, read-out: Lanthascreen IC50 [nM] CDK2
  IC50: > 10000 nM
[1]
  DC50: > 10 µM
CDK9–cyclin T; Supplementary Table 2, read-out: Lanthascreen IC50 [nM] CDK9
  IC50: 3200 nM
CDK9–cyclin T; compound 0.038147 nM
  Lanthascreen TR-FRET signal (raw ratio), sheet CDK9: 0.01966 and 0.01664
CDK9–cyclin T; compound 0.152588 nM
  Lanthascreen TR-FRET signal (raw ratio), sheet CDK9: 0.02094 and 0.01978
CDK9–cyclin T; compound 0.610352 nM
  Lanthascreen TR-FRET signal (raw ratio), sheet CDK9: 0.02169 and 0.01748
CDK9–cyclin T; compound 9.76563 nM
  Lanthascreen TR-FRET signal (raw ratio), sheet CDK9: 0.02175 and 0.01903
CDK9–cyclin T; compound 39.0625 nM
  Lanthascreen TR-FRET signal (raw ratio), sheet CDK9: 0.02145 and 0.01745
CDK9–cyclin T; compound 156.25 nM
  Lanthascreen TR-FRET signal (raw ratio), sheet CDK9: 0.02109 and 0.01723
CDK9–cyclin T; compound 625 nM
  Lanthascreen TR-FRET signal (raw ratio), sheet CDK9: 0.02056 and 0.01753
CDK9–cyclin T; compound 2500 nM
  Lanthascreen TR-FRET signal (raw ratio), sheet CDK9: 0.01726 and 0.0135
CDK9–cyclin T; compound 10000 nM
  Lanthascreen TR-FRET signal (raw ratio), sheet CDK9: 0.01114 and 0.009536
